In patent US5232849A, “Bacteriocin from lactococcus lactis subspecies lactis” (Quest International Flavors & Food Ingredients Company …, priority 1992, dated 1993):

Legend:
Experiment in all cases: Spectrum of antimicrobial activity
Set-up in all cases: key: + = inhibition; - = no inhibition
Conditions in all cases: pure, titer 3200 AU/ml
P. pentosaceus FBB63C = assay type: cell-based, Pediococcus pentosaceus
Protocol: (§1) Bacteriocin assay. To ascertain if the antibacterial substance is secreted into liquid medium, the cultures were grown in MRS broth and cell free filtrates of turbid cultures were made and the filtrate posted on a seeded semisolid agar overlay of the indicator. Antibacterial activity was quantitated by assigning arbitrary units. One arbitrary unit (AU) was defined as 5 μl of the culture supernatant yielding a definite, clear zone of inhibition on the indicator lawn. The titer was expressed as the reciprocal of the highest dilution of supernatant showing inhibition.

L. casei 842 = assay type: cell-based, Lactobacillus casei
Protocol: as §1

L. casei 326 = assay type: cell-based, Lactobacillus casei
Protocol: as §1

L. lactis LLA 1.0 = assay type: cell-based, Lactococcus lactis
Protocol: as §1

L. lactis LLA 2.0 = assay type: cell-based, Lactococcus lactis
Protocol: as §1

L. brevis 329 = assay type: cell-based, Lactobacillus brevis
Protocol: as §1

L. brevis 888 = assay type: cell-based, Lactobacillus brevis
Protocol: as §1

L. plantarum 355 = assay type: cell-based, Lactobacillus plantarum
Protocol: as §1

L. plantarum 346 = assay type: cell-based, Lactobacillus plantarum
Protocol: as §1

P. acidilactici C = assay type: cell-based, Pediococcus acidilactici
Protocol: as §1

P. acidilactici D = assay type: cell-based, Pediococcus acidilactici
Protocol: as §1

P. acidilactici B = assay type: cell-based, Pediococcus acidilactici
Protocol: as §1

P. acidilactici PAC 1.0 = assay type: cell-based, Pediococcus acidilactici
Protocol: as §1

P. acidilactici A = assay type: cell-based, Pediococcus acidilactici
Protocol: as §1

L. fermentum 701 = assay type: cell-based, Lactobacillus fermentum
Protocol: as §1

L. fermentum 342 = assay type: cell-based, Lactobacillus fermentum
Protocol: as §1

B. subtilis amylase^+ = assay type: cell-based, Bacillus subtilis
Protocol: as §1

B. subtilis RM125 = assay type: cell-based, Bacillus subtilis
Protocol: as §1

L. monocytogenes 59 = assay type: cell-based
Protocol: as §1

L. monocytogenes 08 = assay type: cell-based
Protocol: as §1

L. monocytogenes 62 = assay type: cell-based
Protocol: as §1

L. monocytogenes 04 = assay type: cell-based
Protocol: as §1

L. monocytogenes 38 = assay type: cell-based
Protocol: as §1

L. monocytogenes 69 = assay type: cell-based
Protocol: as §1

L. monocytogenes 36 = assay type: cell-based
Protocol: as §1

S. mutans GS5 = assay type: cell-based, Streptococcus mutans
Protocol: as §1

S. mutans V262 = assay type: cell-based, Streptococcus mutans
Protocol: as §1

nisin [Nisin Pure]
inhibition of P. pentosaceus FBB63C (P. pentosaceus FBB63C): + | inhibition of L. casei 842 (L. casei 842): + | inhibition of L. casei 326 (L. casei 326): + | inhibition of L. lactis LLA 1.0 (L. lactis LLA 1.0): + | inhibition of L. lactis LLA 2.0 (L. lactis LLA 2.0): + | inhibition of L. brevis 329 (L. brevis 329): + | inhibition of L. brevis 888 (L. brevis 888): + | inhibition of L. plantarum 355 (L. plantarum 355): + | inhibition of L. plantarum 346 (L. plantarum 346): + | inhibition of P. acidilactici C (P. acidilactici C): + | inhibition of P. acidilactici D (P. acidilactici D): + | inhibition of P. acidilactici B (P. acidilactici B): + | inhibition of P. acidilactici PAC 1.0 (P. acidilactici PAC 1.0): + | inhibition of P. acidilactici A (P. acidilactici A): + | inhibition of L. fermentum 701 (L. fermentum 701): + | inhibition of L. fermentum 342 (L. fermentum 342): + | inhibition of B. subtilis amylase^+ (B. subtilis amylase^+): + | inhibition of B. subtilis RM125 (B. subtilis RM125): + | inhibition of L. monocytogenes 59 (L. monocytogenes 59): + | inhibition of L. monocytogenes 08 (L. monocytogenes 08): + | inhibition of L. monocytogenes 62 (L. monocytogenes 62): + | inhibition of L. monocytogenes 04 (L. monocytogenes 04): + | inhibition of L. monocytogenes 38 (L. monocytogenes 38): + | inhibition of L. monocytogenes 69 (L. monocytogenes 69): + | inhibition of L. monocytogenes 36 (L. monocytogenes 36): + | inhibition of S. mutans GS5 (S. mutans GS5): + | inhibition of S. mutans V262 (S. mutans V262): -
